Test results as given in the supplement of paper PMC10307832.

Experiments:
Assay in all cases: relative viability (nuclei count vs DMSO), 5 days (fraction); higher = more cells survive
[1] = tested on: 201T
Procedure, shortened: (§1)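 Cells from lung cancer lines were seeded into 1536-well plates and, one day later, dosed by pin tool. Treatments were either a single drug or a fixed dose of an anchor drug with five library-drug doses (not always all listed) in √10 steps. After 5 days, nuclei were stained in a one-step fixation (final 0.05% Triton X-100, 1% formaldehyde, 1 ug/ml Hoechst) and counted on 4× images, and relative viability is the treated-to-vehicle nuclei ratio, as the median of duplicate plates.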

[2] = tested on: NCI-H441
Procedure, shortened: as §1

[3] = tested on: PC-14
Procedure, shortened: as §1

[4] = tested on: NCI-H520
Procedure, shortened: as §1

[5] = tested on: LOU-NH91
Procedure, shortened: as §1

[6] = tested on: H3255
Procedure, shortened: as §1

[7] = tested on: NCI-H647
Procedure, shortened: as §1

[8] = tested on: NCI-H3122
Procedure, shortened: as §1

[9] = tested on: NCI-H322M
Procedure, shortened: as §1

[10] = tested on: NCI-H1793
Procedure, shortened: as §1

[11] = tested on: EPLC-272H
Procedure, shortened: as §1

[12] = tested on: COR-L23
Procedure, shortened: as §1

[13] = tested on: UMC-11
Procedure, shortened: as §1

[14] = tested on: NCI-H2405
Procedure, shortened: as §1

[15] = tested on: NCI-H1650
Procedure, shortened: as §1

[16] = tested on: HCC-15
Procedure, shortened: as §1

[17] = tested on: NCI-H2170
Procedure, shortened: as §1

[18] = tested on: NCI-H1734
Procedure, shortened: as §1

[19] = tested on: NCI-H2023
Procedure, shortened: as §1

[20] = tested on: NCI-H2347
Procedure, shortened: as §1

Question: What does the source list for `COc1nc(C)cnc1NS(=O)(=O)c1cccnc1-c1ccc(-c2nnco2)cc1` [Zibotentan] + CC1(C)CCC(c2ccc(Cl)cc2)=C(CN2CCN(c3ccc(C(=O)NS(=O)(=O)c4ccc(N[C@H](CCN5CCOCC5)CSc5ccccc5)c(S(=O)(=O)C(F)(F)F)c4)cc3)CC2)C1 [Navitoclax] (partner 0.5 µM)?
Answer: relative viability ([1]; first compound 0.08 µM): 1.23; relative viability ([1]; first compound 0.253 µM): 1.21; relative viability ([1]; first compound 0.8 µM): 1.23; relative viability ([1]; first compound 2.53 µM): 1.21; relative viability ([2]; first compound 0.08 µM): 0.635; relative viability ([2]; first compound 0.8 µM): 0.794; relative viability ([2]; first compound 2.53 µM): 0.877; relative viability ([3]; first compound 0.08 µM): 1.01; relative viability ([3]; first compound 0.253 µM): 0.983; relative viability ([3]; first compound 0.8 µM): 0.987; relative viability ([3]; first compound 2.53 µM): 1.03; relative viability ([4]; first compound 0.08 µM): 1.13; relative viability ([4]; first compound 0.253 µM): 0.93; relative viability ([4]; first compound 0.8 µM): 0.996; relative viability ([4]; first compound 2.53 µM): 1.37; relative viability ([5]; first compound 0.08 µM): 0.693; relative viability ([5]; first compound 0.253 µM): 0.635; relative viability ([5]; first compound 0.8 µM): 0.812; relative viability ([5]; first compound 2.53 µM): 0.66; relative viability ([6]; first compound 0.08 µM): 0.458; relative viability ([6]; first compound 0.253 µM): 0.603; relative viability ([6]; first compound 0.8 µM): 0.609; relative viability ([6]; first compound 2.53 µM): 0.458; relative viability ([7]; first compound 0.08 µM): 1.34; relative viability ([7]; first compound 0.253 µM): 0.875; relative viability ([7]; first compound 0.8 µM): 1; relative viability ([7]; first compound 2.53 µM): 1.17; relative viability ([8]; first compound 0.08 µM): 1.04; relative viability ([8]; first compound 0.253 µM): 1.01; relative viability ([8]; first compound 0.8 µM): 1.04; relative viability ([8]; first compound 2.53 µM): 1.06; relative viability ([9]; first compound 0.08 µM): 1.12; relative viability ([9]; first compound 0.253 µM): 1.18; relative viability ([9]; first compound 0.8 µM): 1.23; relative viability ([9]; first compound 2.53 µM): 1.3; relative viability ([10]; first compound 0.08 µM): 0.506; relative viability ([10]; first compound 0.253 µM): 0.405; relative viability ([10]; first compound 0.8 µM): 0.414; relative viability ([10]; first compound 2.53 µM): 0.486; relative viability ([11]; first compound 0.08 µM): 1.09; relative viability ([11]; first compound 0.253 µM): 1.1; relative viability ([11]; first compound 0.8 µM): 1.16; relative viability ([11]; first compound 2.53 µM): 1.4; relative viability ([12]; first compound 0.08 µM): 1.03; relative viability ([12]; first compound 0.253 µM): 1.08; relative viability ([12]; first compound 0.8 µM): 1.07; relative viability ([12]; first compound 2.53 µM): 1.01; relative viability ([13]; first compound 0.08 µM): 0.303; relative viability ([13]; first compound 0.253 µM): 0.32; relative viability ([13]; first compound 0.8 µM): 0.293; relative viability ([13]; first compound 2.53 µM): 0.302; relative viability ([14]; first compound 0.08 µM): 0.904; relative viability ([14]; first compound 0.253 µM): 0.725; relative viability ([14]; first compound 0.8 µM): 0.921; relative viability ([14]; first compound 2.53 µM): 1.01; relative viability ([15]; first compound 0.08 µM): 1.26; relative viability ([15]; first compound 0.8 µM): 1.36; relative viability ([15]; first compound 2.53 µM): 1.09; relative viability ([16]; first compound 0.08 µM): 0.648; relative viability ([16]; first compound 0.253 µM): 0.656; relative viability ([16]; first compound 0.8 µM): 0.765; relative viability ([16]; first compound 2.53 µM): 0.698; relative viability ([17]; first compound 0.08 µM): 0.699; relative viability ([17]; first compound 0.253 µM): 0.6; relative viability ([17]; first compound 0.8 µM): 0.651; relative viability ([17]; first compound 2.53 µM): 0.651; relative viability ([18]; first compound 0.08 µM): 0.906; relative viability ([18]; first compound 0.253 µM): 0.881; relative viability ([18]; first compound 0.8 µM): 0.822; relative viability ([18]; first compound 2.53 µM): 0.897; relative viability ([19]; first compound 0.08 µM): 1.05; relative viability ([19]; first compound 0.253 µM): 0.922; relative viability ([19]; first compound 0.8 µM): 1.01; relative viability ([19]; first compound 2.53 µM): 1.1; relative viability ([20]; first compound 0.08 µM): 0.746; relative viability ([20]; first compound 0.253 µM): 0.776; relative viability ([20]; first compound 0.8 µM): 0.741; relative viability ([20]; first compound 2.53 µM): 0.77
